Data reported in patent US9587001B2, “Conjugated knottin mini-proteins containing non-natural amino acids” (priority 2012, dated 2017).
Starred links: 1 amine or outer side, 2 acyl side, 3 side chain; linkers in the order of their positions; H or OH if unused. Positions of bridges follow the written chain, without caps; N, C: chain ends. Non-standard residues stand in square brackets, D forms with d. Residues, ends and D or L forms follow the SMILES beside them. Primed or numbered codes have the meaning given here. Chains are numbered I, II in the order given. No end group written: not given here. AO″ = AO: aminooxy residue, 2-amino-3-(2-(aminooxy)acetamido)propanoic acid (side chain carries R'-O-NH2), O=C(CON[*:3])NC[C@H](N[*:1])C(=O)[*:2]; X1 = O=C(NCCCOCCCCOCCCNC(=O)c1ccc(C=NOCC(=O)[*:2])cc1)c1ccc(C=NOCC(=O)[*:1])cc1; Dap = NC[C@H](N)C(=O)O

Legend:
[1] = system: MDA231 (Human breast adenocarcinoma); test: Inhibition of proliferation, MDA231 carcinoma line; format: cell-based; conditions: for Proliferation: Cell line: MDA231; for inhibition of tumor cell proliferation, comparison between dimers, monomer and Cilengitide: Table 3 results
Protocol: (§1) Dimers of the present knottins with AO groups incorporated at different positions were prepared and conjugated with different linkages. There were tested for activity against carcinoma lines. As identified there, Dimer 1 is EETI 2.5F where the AO group was incorporated in place of Lys15, conjugated through the 17.3 Angstrom linker shown in FIG. 1B; Dimer 2 is EETI 2.5F, where the AO group was incorporated in place of Lys15, conjugated though the 68.5 Angstrom linker shown in FIG. 9. Dimer 3 is EETI 2.5F, where the AO group was incorporated at the C-terminus following residue 33, conjugated through a 17.3 Angstrom linker shown in FIG. 1B; Dimer 4 is EETI 2.5F, where the AO group was incorporated at the C-terminus following residue 33, conjugated through the 68.5 Angstrom linker shown in FIG. 9. […] Also, it was observed that the length of the linkage had only a minor effect on binding. Binding, of course, it correlated with the activity in proliferation and apoptosis.

[2] = system: SKOV 3 (Ovarian adenocarcinoma); test: Inhibition of proliferation, SKOV 3 carcinoma line; format: cell-based; conditions: Cell line: SKOV 3
Protocol: as §1

[3] = system: U87MG cells expressing αvβ3, αvβ5, and α5β1 integrins; test: Competition binding assay to U87MG cells (flow cytometry); design: species or system human; conditions: for IC50: 4° C. for 10 h, average of three experiments; for increase of apparent binding affinity of dimer compared to the monomer: from IC50 values
Protocol: FIG. 2B is a graph showing a competition assay of EETI-based integrin binding proteins 2.5F dimer and 2.5F monomer to U87MG cells, as measured by flow cytometry. Alexa488-labeled EETI 2.5F was used as a competitor. Monomeric EETI 2.5F with an introduced aminooxy residue is designated as 2.5F_AO.
FIG. 2C is a graph showing a competition assay of AgRP-based integrin binding proteins: dimeric 7C and monomeric 7C to U87MG cells, as measured by flow cytometry. Alexa488-labeled AgRP 7C was used as a competitor. Monomeric AgRP 7C with aminooxy residue is designated as Monomeric 7C_AO.
Alexa488-labeled EETI 2.5F was used as a competitor.
Competition binding assays were performed to measure the relative binding affinities of engineered knottins to U87MG cells expressing αvβ3, αvβ5, and α5β1 integrins (FIG. 2A, 2B, 2C). 2×10^5 U87MG cells were incubated at 4° C. for 10 h in integrin binding buffer (20 mM Tris pH 7.5, 1 mM MgCl2, 1 mM MnCl2, 2 mM CaCl2, 100 mM NaCl, and 0.1% BSA) and varying concentrations of the peptides with 0.25 nM of Alexa488-labeled EETI 2.5F as a competitor for dimeric and monomeric EETI 2.5F, and 5 nM of Alexa488-labeled AgRP 7C as a competitor for dimeric and monomeric AgRP 7C. Half-maximal inhibitory concentration (IC50) values were determined by nonlinear regression analysis using KaleidaGraph (Synergy Software), and are presented as the average of three separate experiments.

U87MG cells [4] = format: cell-based, human; conditions: for EC50: U87MG cells on fibronectin coated plates, 1 h at 37° C., read-out: Adhesion EC50
Protocol: FIG. 3A is a graph measuring comparative inhibition of adhesion of U87MG cells treated with dimeric and monomeric 2.5F to fibronectin, a component of ECM. Fibronectin coated plates were incubated with U87MG cells with the indicated concentrations of peptides. Adherent cells remaining after several wash steps were quantified with crystal violet staining by absorbance at 600 nm. […] Values were normalized to negative control containing no competing peptides.
FIG. 7 is a graph measuring comparative inhibition of adhesion of U87MG cells treated with dimeric and monomeric 2.5F or Cilgenitide to fibronectin, a component of ECM. Fibronectin coated plates were incubated with U87MG cells with the indicated concentrations of peptides. Adherent cells remaining after several wash steps were quantified with crystal violet staining by absorbance at 600 nm. Values were normalized to negative control containing no competing peptides.
Varying concentrations of peptides were added to 4×10^4 cells in 100 μl of IBB, incubated for 1 h at 37° C., 5% CO2, and gently washed with Dulbecco's PBS (DPBS, Invitrogen). Remaining adherent cells were incubated with 100 μl of 0.2% crystal violet and 10% ethanol for 10 min at room temperature, washed in DPBS and solubilized with 100 μl/well of a 50:50 mixture of 100 mM sodium phosphate, pH 4.5 and ethanol for 10 min. The absorbance at 600 nm was measured using Synergy HT microplate reader (BioTek).

U87MG cells [5] = test: Cytotoxicity / inhibition of proliferation of U87MG cells (AlamarBlue); format: cell-based, human
Protocol: FIG. 4A is a bar graph showing time dependent cytotoxicity of U87MG cells after treatment with the indicated knottin mini-proteins. Cytotoxicity was monitored by incubating U87MG cells on culture plates with 500 nM of each knottin in 4% FBS media at 37° C. and 5% CO2 and measuring cell viability at 24, 48, and 72 h after the treatment using the AlamarBlue indicator dye.
FIG. 4B is a bar graph showing dose dependent cytotoxicity of U87MG cells assessed by treating with different concentrations of knottins for 72 h and measuring cell viability using the AlamarBlue indicator dye.
FIG. 8 is a bar graph showing dose dependent cytotoxicity of U87MG cells assessed by treating with different concentrations of dimeric or monomeric 2.5F or Cilgenitide for 72 h and measuring cell viability using the AlamarBlue indicator dye.

U87MG cells [6] = test: U87MG cell morphology after knottin treatment (microscope images); format: cell-based, human; conditions: 500 nM, 24 h, DMEM media with 4% FBS
Protocol: FIG. 3B is a panel of microscope images of the U87MG cells on culture plates after 24 h treatment with 500 nM of the indicated knottins.

[7] = system: MDA231 (Human breast adenocarcinoma); test: Apoptosis (Caspase-3), MDA231 carcinoma line; format: cell-based; conditions: Cell line: MDA231
Protocol: as §1

[8] = 0.25 nM Alexa488-labeled EETI 2.5F as competitor

2.5F Dimer2: EETI 2.5F, AO in place of Lys15, conjugated though the 68.5 Angstrom linker shown in FIG. 9 (GCPRPRGDNPPLTC[AO″]QDSDCLAGCVCGPNGFCG; ends and bridges not checked; also: dimer (Dimer2) conjugated through 68.5 Angstrom linker via AO15)
Proliferation [1]: Strong inhibition | inhibition of tumor cell proliferation, comparison between dimers, monomer and Cilengitide [1]: more strongly inhibited tumor cell proliferation compared to Dimers 3 and 4 | Proliferation [2]: Strong inhibition

scrambled EETI FNRDG monomer [FNRDG_AO, reference compound]
binding (in words) ([3]; scrambled controls): negligible binding | inhibition of U87MG cell adhesion to fibronectin (in words) (U87MG cells [4]; fibronectin-coated plates): not able to inhibit cell adhesion | inhibition of U87MG cell proliferation (in words) (U87MG cells [5]; scrambled controls): did not induce significant inhibition

I: GCVRLHESCLGQQVPCCDPAATCYCYGRGDNDLRCYC[Dap] / II: GCVRLHESCLGQQVPCCDPAATCYCYGRGDNDLRCYC[Dap] (disulfide I:2-I:17, I:9-I:23, I:16-I:37, I:25-I:35, II:2-II:17, II:9-II:23, II:16-II:37, II:25-II:35; linker I:38-II:38 via X1) [AgRP 7C Dimer]
IC50 ([3]; 5 nM Alexa488-labeled AgRP 7C as competitor): 3.2 ± 0.6 nM | increase of apparent binding affinity of dimer compared to the monomer [3]: ~4 fold

I: GCPRPRGDNPPLTC[Dap]QDSDCLAGCVCGPNGFCG / II: GCPRPRGDNPPLTC[Dap]QDSDCLAGCVCGPNGFCG (disulfide I:2-I:24, I:14-I:26, I:20-I:32, II:2-II:24, II:14-II:26, II:20-II:32; linker I:15-II:15 via X1) [EETI 2.5F Dimer]
IC50 [3, 8]: 0.036 ± 0.002 nM | increase of apparent binding affinity of dimer compared to the monomer [3]: approximately 46 fold | EC50 (U87MG cells [4]): 8 ± 2 nM | inhibition of U87MG cell adhesion to fibronectin (in words) (U87MG cells [4]; fibronectin-coated plates): able to inhibit | more effective in preventing U87MG cell adhesion compared to the monomer (U87MG cells [4]; fibronectin-coated plates): 100 fold | U87MG cell morphology (U87MG cells [6]): rounded morphology | inhibition of U87MG cell proliferation (U87MG cells [5]; 10 nM, 72 hours): 28% | inhibition of U87MG cell proliferation (U87MG cells [5]; 100 nM, 72 hours): 52% | inhibition of U87MG cell proliferation (U87MG cells [5]; 500 nM, 24 h): 53% | inhibition of U87MG cell proliferation (U87MG cells [5]; 500 nM, 48 h): 68% | inhibition of U87MG cell proliferation (U87MG cells [5]; 500 nM, 72 h): 69% | inhibition of U87MG cell proliferation (U87MG cells [5]; 1000 nM, 72 hours): 70% | more potent at inhibiting cell proliferation compared to Cilengitide (U87MG cells [5]; U87MG cells, 72 h): 100 fold | Proliferation [1]: Strong inhibition | inhibition of tumor cell proliferation, comparison between dimers, monomer and Cilengitide [1]: more strongly inhibited tumor cell proliferation compared to Dimers 3 and 4 | Apoptosis (Caspase-3) [7]: Strong induction | Proliferation [2]: Strong inhibition

CC(C)[C@H]1C(=O)N[C@@H](CCCN=C(N)N)C(=O)NCC(=O)N[C@@H](CC(=O)O)C(=O)N[C@H](Cc2ccccc2)C(=O)N1C [Cilengitide, reference compound]
inhibition of U87MG cell adhesion to fibronectin (in words) (U87MG cells [4]; fibronectin-coated plates): does not inhibit | Proliferation [1]: Weak inhibition | Apoptosis (Caspase-3) [7]: Moderate induction

CC(C)C[C@@H]1NC(=O)[C@@H]2CSSC[C@@H](C(=O)NCC(=O)O)NC(=O)[C@H](Cc3ccccc3)NC(=O)CNC(=O)[C@H](CC(N)=O)NC(=O)[C@@H]3CCCN3C(=O)CNC(=O)[C@@H]3CSSC[C@H](NC(=O)[C@H]([C@@H](C)O)NC(=O)[C@H](CC(C)C)NC(=O)[C@@H]4CCCN4C(=O)[C@@H]4CCCN4C(=O)[C@H](CC(N)=O)NC(=O)[C@H](CC(=O)O)NC(=O)CNC(=O)[C@H](CCCNC(=N)N)NC(=O)[C@@H]4CCCN4C(=O)[C@H](CCCNC(=N)N)NC(=O)[C@@H]4CCCN4C(=O)[C@@H](NC(=O)CN)CSSC[C@H](NC(=O)CNC(=O)[C@H](C)NC1=O)C(=O)N[C@@H](C(C)C)C(=O)N3)C(=O)N[C@@H](CCCCN)C(=O)N[C@@H](CCC(N)=O)C(=O)N[C@@H](CC(=O)O)C(=O)N[C@@H](CO)C(=O)N[C@@H](CC(=O)O)C(=O)N2 [EETI 2.5F] (H-GCPRPRGDNPPLTCKQDSDCLAGCVCGPNGFCG-OH; disulfide 2-24, 14-26, 20-32)
IC50 [3, 8]: 1.64 ± 0.03 nM | EC50 (U87MG cells [4]): 180 ± 14 nM | inhibition of U87MG cell adhesion to fibronectin (in words) (U87MG cells [4]; fibronectin-coated plates): able to inhibit | U87MG cell morphology (U87MG cells [6]): rounded morphology | inhibition of U87MG cell proliferation (U87MG cells [5]; 10 nM, 72 hours): 15% | inhibition of U87MG cell proliferation (U87MG cells [5]; 100 nM, 72 hours): 30% | inhibition of U87MG cell proliferation (U87MG cells [5]; 500 nM, 24 h): 37% | inhibition of U87MG cell proliferation (U87MG cells [5]; 500 nM, 48 h): 44% | inhibition of U87MG cell proliferation (U87MG cells [5]; 500 nM, 72 h): 50% | inhibition of U87MG cell proliferation (U87MG cells [5]; 1000 nM, 72 hours): 60% | Proliferation [1]: Weak inhibition | Apoptosis (Caspase-3) [7]: Moderate induction
